Experimental findings from ChEMBL document CHEMBL1128752, “1,2,3-Trisubstituted cyclohexyl substance P antagonists: significance of the ring nitrogen in piperidine-based NK-1 receptor antagonists” (Bioorg Med Chem Lett, 1995) are described below.

T1 sequence (P25103 whole entry): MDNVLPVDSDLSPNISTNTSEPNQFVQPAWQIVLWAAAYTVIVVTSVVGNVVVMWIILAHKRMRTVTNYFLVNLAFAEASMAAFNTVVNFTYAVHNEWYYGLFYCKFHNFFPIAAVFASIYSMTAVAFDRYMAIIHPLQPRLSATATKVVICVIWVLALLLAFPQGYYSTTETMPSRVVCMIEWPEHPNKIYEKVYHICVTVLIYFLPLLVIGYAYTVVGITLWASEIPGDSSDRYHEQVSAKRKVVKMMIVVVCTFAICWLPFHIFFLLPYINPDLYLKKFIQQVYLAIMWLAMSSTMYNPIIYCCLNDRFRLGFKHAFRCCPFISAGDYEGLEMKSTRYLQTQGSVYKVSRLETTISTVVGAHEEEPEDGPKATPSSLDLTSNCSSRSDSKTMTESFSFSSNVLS

The first test has as its target T1, Substance-P receptor (Homo sapiens, UniProt P25103). The following applies: CHO.
Description: Dissociation constant towards Neurokinin -1(NK-1) receptor of human by using [125I]- Tyr8 substance P as a radioligand in CHO cells
`FC(F)(F)c1cc(CO[C@H]2CCCN[C@H]2c2ccccc2)cc(C(F)(F)F)c1`: the pKa turned out to be 8.3.

The target in another test is T1, Substance-P receptor. Put plainly: Binding affinity towards Neurokinin -1(NK-1) receptor of human by using [125I]- Tyr8 substance P as a radioligand in CHO cells. Format: cell-based.
Conditions: not given
With `O=C(C[C@H]1CCC[C@H](OCc2cc(C(F)(F)F)cc(C(F)(F)F)c2)[C@@H]1c1ccccc1)NCc1cccnc1`, the IC50 was 3.7 nM. In turn, `O=C(C[C@H]1CCC[C@H](OCc2cc(C(F)(F)F)cc(C(F)(F)F)c2)[C@@H]1c1ccccc1)NCc1ccncc1` registered an IC50 of 7 nM. Same read-out and setting: with `O=C(NCc1cccnc1)NC[C@H]1CCC[C@H](OCc2cc(C(F)(F)F)cc(C(F)(F)F)c2)[C@@H]1c1ccccc1` the figure was 34 nM; with `NC(=O)C[C@@H]1CCC[C@@H](OCc2cc(C(F)(F)F)cc(C(F)(F)F)c2)[C@H]1c1ccccc1`, no less than 157 nM; with `FC(F)(F)c1cc(CO[C@H]2CCCC[C@H]2c2ccccc2)cc(C(F)(F)F)c1`, 2630 nM. In the case of `NC(=O)C[C@H]1CCC[C@H](OCc2cc(C(F)(F)F)cc(C(F)(F)F)c2)[C@@H]1c1ccccc1` (stereo in doubt; 19a), the IC50 is 3 nM. `CN1CCC[C@H](OCc2cc(C(F)(F)F)cc(C(F)(F)F)c2)[C@@H]1c1ccccc1` had an IC50 of 14 nM. This IC50 lies about 4.7-fold higher than the previous one.

In turn, `NC(=O)NC[C@H]1CCC[C@H](OCc2cc(C(F)(F)F)cc(C(F)(F)F)c2)[C@@H]1c1ccccc1` yielded an IC50 of 6.7 nM. As for `FC(F)(F)c1cc(CO[C@H]2CCCO[C@H]2c2ccccc2)cc(C(F)(F)F)c1`, the IC50 came out at 881 nM.

`NC(=O)C[C@H]1CCC[C@H](OCc2cc(C(F)(F)F)cc(C(F)(F)F)c2)[C@@H]1c1ccccc1` (stereo in doubt; 22) had a 50% inhibitory concentration (IC50) of 1.5 nM. `OC(COCc1cc(C(F)(F)F)cc(C(F)(F)F)c1)C(c1ccccc1)c1ccccc1` (configuration not stated) had an IC50 of 17 nM.
